Assay [1] addresses T1, ATP7A(E1030K) (Homo sapiens, UniProt Q04656, E1030K).
T1 construct: expressed in transfected cells; host or cells: HEK293 (detergent-free lysate)
T1 sequence (Q04656 1-1500 E1030K): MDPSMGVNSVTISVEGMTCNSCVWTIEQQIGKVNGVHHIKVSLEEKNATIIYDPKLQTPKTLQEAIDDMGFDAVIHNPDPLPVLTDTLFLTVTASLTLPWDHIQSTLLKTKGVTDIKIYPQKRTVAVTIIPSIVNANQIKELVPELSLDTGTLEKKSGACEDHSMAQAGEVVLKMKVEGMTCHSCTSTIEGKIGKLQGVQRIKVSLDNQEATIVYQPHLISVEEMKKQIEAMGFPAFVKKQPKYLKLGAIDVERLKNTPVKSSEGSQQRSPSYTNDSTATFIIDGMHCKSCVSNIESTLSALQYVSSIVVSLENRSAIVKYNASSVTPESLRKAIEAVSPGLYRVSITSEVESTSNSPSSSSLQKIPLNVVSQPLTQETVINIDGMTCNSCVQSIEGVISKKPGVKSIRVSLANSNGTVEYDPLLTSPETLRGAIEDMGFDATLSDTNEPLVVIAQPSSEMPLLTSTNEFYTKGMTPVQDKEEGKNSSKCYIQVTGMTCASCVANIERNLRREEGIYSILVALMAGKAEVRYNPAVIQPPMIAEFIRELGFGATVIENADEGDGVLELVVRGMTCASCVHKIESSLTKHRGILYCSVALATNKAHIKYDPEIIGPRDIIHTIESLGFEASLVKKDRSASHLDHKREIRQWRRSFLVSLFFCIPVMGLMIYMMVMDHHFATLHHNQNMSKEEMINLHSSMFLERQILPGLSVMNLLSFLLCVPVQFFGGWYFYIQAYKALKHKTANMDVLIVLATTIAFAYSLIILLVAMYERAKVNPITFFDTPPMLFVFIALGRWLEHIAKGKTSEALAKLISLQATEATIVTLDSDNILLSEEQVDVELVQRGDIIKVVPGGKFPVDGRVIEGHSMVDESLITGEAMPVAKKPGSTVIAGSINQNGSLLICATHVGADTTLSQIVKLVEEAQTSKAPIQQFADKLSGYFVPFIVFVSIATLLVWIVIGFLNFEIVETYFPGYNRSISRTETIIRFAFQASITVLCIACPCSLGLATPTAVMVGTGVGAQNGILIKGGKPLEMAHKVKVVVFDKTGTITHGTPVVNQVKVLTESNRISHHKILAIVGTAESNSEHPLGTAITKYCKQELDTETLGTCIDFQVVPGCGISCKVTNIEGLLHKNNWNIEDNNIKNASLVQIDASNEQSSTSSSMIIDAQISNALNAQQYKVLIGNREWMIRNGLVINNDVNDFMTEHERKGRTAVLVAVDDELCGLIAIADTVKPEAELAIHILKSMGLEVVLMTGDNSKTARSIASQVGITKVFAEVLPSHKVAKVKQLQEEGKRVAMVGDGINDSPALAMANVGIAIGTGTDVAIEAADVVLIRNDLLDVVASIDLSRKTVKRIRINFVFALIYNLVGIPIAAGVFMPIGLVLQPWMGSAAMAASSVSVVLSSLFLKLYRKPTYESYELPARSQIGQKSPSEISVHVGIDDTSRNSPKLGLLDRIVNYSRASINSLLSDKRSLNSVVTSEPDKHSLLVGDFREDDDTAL
The assay is described as follows: Microscale thermophoresis (MST) binding to GFP-ATP7A(E1030K) mutant. Conditions: relative to wild type ATP7A. From the text:
7A is a model of MKV3-coordinating residues in ATP7A which are identical to those of ATP7B except that the negatively charged glutamate at position 1030 (E1030) of ATP7A corresponds to a positively lysine at position 1013 (K1013) in ATP7B. […] To confirm this the E1030 residue in ATP7A was mutated to a lysine to generate an ATP7A(E1030K) mutant protein.

Assay [2] concerns Cu^S cells complemented with ATP7A. In words: Copper toxicity in Cu^S cells complemented with ATP7A. Format: cell-based. Conditions: 10 μM, 50% cytotoxic copper concentration. An excerpt:
8A illustrates a copper sensitive fibroblast cell line (Cu^S) generated by deleting genes encoding ATP7A, metallothionein-I (MT-I) and metallothionein-II (MT-II). Cu^S cells cannot be propagated in regular medium (DMEM) unless a copper chelator (BCS) is supplied to the medium.
Cu^S cell lines were derived that were complemented by either ATP7A, ATP7B or MT-II.

SMILES strings stand for the structures.

Turning to `N#CC(C(=O)Nc1cccc(C(F)(F)F)c1)C(=S)Nc1ccccc1Cl` (centres unmarked) [MKV3], the “increase of binding affinity by E1030K mutation in ATP7A” value in assay [1] is on record as “approximately 2.7 fold”. For the same compound, in assay [2], the copper toxicity entry is listed as “enhanced copper toxicity”.

For the origin of these results see patent US20250017889A1, “INHIBITORS OF P1B-TYPE ATPASES” (THE CURATORS OF THE UNIVERSITY OF MISSOURI, priority 2021, published 2025).
